These results are taken from US20250134994A1, “IMMUNOGENIC MRNA DELIVERY VEHICLES” (Corner Therapeutics, Inc., priority 2022, published 2025).

Holding throughout (format): cell-based
One experiment has as its system canine PBMCs. As to the kind of experiment: IL-1β secretion by canine PBMCs (ELISA). The note with it: two days in culture, R848 1 μg/mL, 22:0 LYSO PC 82.5 μM, concentration per mL and fold change per donor relative to R848 alone. On the procedure:
(§1) Isolation of PBMCs from Human and Canine Whole Blood. PBMCs were isolated from whole blood using density gradient centrifugation with Ficoll-Paque PLUS (Cytivia). Whole blood was diluted 1:1 with PBS, layered on top of Ficoll-Paque PLUS and centrifuged at 1000×g for 30 minutes at room temperature. PBMCs were collected, washed twice in PBS, and incubated with Ack lysis buffer (Lonza) to remove any remaining red blood cells.
(§2) Cell Culture and Stimulation. Immediately following isolation, PBMCs were plated in RPMI medium containing 10% FBS, 50 units/mL penicillin, […] streptomycin, 2 mM L-glutamine, 1 mM sodium pyruvate, and […] beta-mercaptoethanol (R10 media). […]
(§3) Endpoint Analyses. […] Half of the media volume in the wells was collected for cytokine quantification by Enzyme-Linked Immunosorbent Assay (ELISA) or Lumit™ Bioluminescent assay, while the remaining media and cells were used to quantify cell viability by assessing metabolic activity.
(§4) Quantification of Cytokine Secretion. IL-1β secretion from human PBMCs was assessed using one of the following kits: ELISA MAX Deluxe Set Human IL-1β kit (Biolegend), Invitrogen Human IL-1β kit, or the Lumit™ Human IL-1β Immunoassay (Promega). IFNγ secretion from human PBMCs was assessed using the ELISA MAX Deluxe Set Human IFNγ (Biolegend) and TNFα secretion from human PBMCs was assessed using the Human TNFα Uncoated ELISA kit (Invitrogen). […]

Experiment [1] concerns human PBMCs. As to the kind of experiment: IFNγ secretion by human PBMCs (ELISA). The following applies: two days post-hyperactivation. How it is done:
as §1, §2, §3, §4

The test system of experiment [2] is human PBMCs. As to the kind of experiment: IL-1β secretion by human PBMCs (ELISA or Lumit). The following applies: two days in culture, R848 1 μg/mL. On the procedure:
as §1, §2, §3, §4

For the compound `Nc1nc2c(ncn2[C@@H]2O[C@@H]3COP(=O)(O)O[C@H]4[C@@H](O)[C@H](n5cnc6c(N)ncnc65)O[C@@H]4COP(=O)(O)O[C@@H]2[C@@H]3O)c(=O)[nH]1` [2′3′cGAMP, 2′3′ cGAMP, reference compound], the IL-1β secretion result in the experiment on canine PBMCs is “neither GM-CSF nor 2′3′cGAMP induced significant IL-1β secretion”. In addition, the “fold change per donor in IFNγ secretion relative to R848 alone” value in the experiment on human PBMCs [1] is “neither GM-CSF nor 2′3′cGAMP elicited a substantial fold change”.
Turning to “GM-CSF: human GM-CSF (Peprotech), innate agonist added at 10 ng/mL”, the figures for the IL-1β secretion entry in the experiment with canine PBMCs and in the experiment with human PBMCs [2] were “neither GM-CSF nor 2′3′cGAMP induced significant IL-1β secretion” and “did not induce levels of IL-1β secretion from human PBMCs significantly above background levels”, respectively. Further, the “fold change per donor in IFNγ secretion relative to R848 alone” value with human PBMCs [1] was “neither GM-CSF nor 2′3′cGAMP elicited a substantial fold change”.
